Experimental findings from PubChem BioAssay (NCI) are described below.

Test systems include RXF 393 renal; MOLT-4 leukemia; SK-MEL-5 melanoma; SF-268 CNS; ACHN renal; HS 578T breast; SN12C renal; HCC-2998 colon; A549 NSCLC; RPMI-8226 leukemia.
Holding throughout (test): NCI tumour cell line growth inhibition, 48 h

Structures are written as SMILES.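 Results reflect a 48-hour exposure of cells in 96-well plates to compound at five concentrations. Here, GI50 denotes the concentration required for 50% inhibition of growth. Definition used: TGI = concentration required for complete inhibition of growth.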

`O=C(NCCSSCCNC(=O)/C(Cc1ccc(O)c(Br)c1)=N/O)/C(Cc1ccc(O)c(Br)c1)=N/O`: the TGI is 2 µM in the experiment with RXF 393 renal; 8.58 µM in the experiment on MOLT-4 leukemia; 2.33 µM in the experiment on SK-MEL-5 melanoma; 9.75 µM with SF-268 CNS; 5.77 µM with ACHN renal; over 50 µM with HS 578T breast. For the same compound, the TGI came out at 5.73 µM with SN12C renal, 8.11 µM with HCC-2998 colon, 15.5 µM in the experiment on A549 NSCLC and 5.35 µM with RPMI-8226 leukemia.
Regarding `O=C1c2ccccc2-c2c1c1c(O)cccc1n2CCCc1ccccc1`, the GI50 in the experiment on RXF 393 renal was 5.87 µM; with MOLT-4 leukemia, 30.4 µM; in the experiment with SK-MEL-5 melanoma, 12.6 µM; in the experiment with SF-268 CNS, 88.5 µM; in the experiment with ACHN renal, 14.1 µM; in the experiment with HS 578T breast, 41.7 µM. In addition, the GI50 is 14 µM with SN12C renal, 2.35 µM in the experiment on HCC-2998 colon, 9.61 µM with A549 NSCLC and 13.7 µM in the experiment with RPMI-8226 leukemia. Moreover, the TGI is 68.5 µM in the experiment on RXF 393 renal; over 100 µM with MOLT-4 leukemia; 27.8 µM in the experiment on SK-MEL-5 melanoma; over 100 µM with SF-268 CNS; 66.9 µM in the experiment with ACHN renal; over 100 µM in the experiment on HS 578T breast. The TGI in the experiment with SN12C renal was 67.9 µM; with HCC-2998 colon, 6.01 µM; with A549 NSCLC, over 100 µM; with RPMI-8226 leukemia, 51.9 µM.
`CC[C@@]1(OC(=O)C(N)CCC(=O)O)C(=O)OCc2c1cc1n(c2=O)Cc2cc3ccccc3nc2-1` (stereo not given in full): the TGI with RXF 393 renal is 0.757 µM; in the experiment with MOLT-4 leukemia, 0.0992 µM; with SK-MEL-5 melanoma it was 0.36 µM; with SF-268 CNS, 14.7 µM; in the experiment on ACHN renal it was 0.561 µM; with HS 578T breast, over 100 µM. Moreover, the TGI is 1.34 µM in the experiment on SN12C renal, 3.02 µM in the experiment with HCC-2998 colon, 3.37 µM in the experiment on A549 NSCLC and 2.94 µM in the experiment on RPMI-8226 leukemia.
`Oc1[nH]c2ccc(Cl)cc2c1/C=c1/ccc2c(c1)N=C(c1ccc(C(F)(F)F)cc1)N=2`: the GI50 in the experiment on RXF 393 renal was 1.88 µM; with MOLT-4 leukemia, 2.41 µM; with SK-MEL-5 melanoma, 1.7 µM; with SF-268 CNS, 2.72 µM; with ACHN renal it was 3.24 µM; in the experiment on HS 578T breast, 2.4 µM. Besides, the GI50 with SN12C renal was 2.37 µM; in the experiment with HCC-2998 colon, 2.1 µM; in the experiment on A549 NSCLC, 3 µM; in the experiment on RPMI-8226 leukemia, 2.21 µM. Also, the TGI in the experiment on RXF 393 renal came out at 3.76 µM; with MOLT-4 leukemia, 6.19 µM; with SK-MEL-5 melanoma, 3.31 µM; in the experiment with SF-268 CNS, 7.64 µM; in the experiment on ACHN renal, 15.4 µM; in the experiment on HS 578T breast it was 6.86 µM. For the same compound, the TGI in the experiment on SN12C renal came out at 6.72 µM; in the experiment on HCC-2998 colon, 4.81 µM; with A549 NSCLC, 10.8 µM; with RPMI-8226 leukemia it was 5.44 µM.
For `O=S1CCN(Cc2ccc(-c3ccc4ncnc(Nc5ccc(OCc6ccccc6)c(F)c5)c4c3)o2)CC1`, the GI50 is 4.45 µM with RXF 393 renal; 8.76 µM with MOLT-4 leukemia; 3.44 µM with SK-MEL-5 melanoma; 17.8 µM in the experiment with SF-268 CNS; 0.757 µM in the experiment on ACHN renal; 8.89 µM in the experiment on HS 578T breast. The GI50 is 8.07 µM in the experiment with SN12C renal, 9.93 µM in the experiment on HCC-2998 colon, 7.55 µM in the experiment on A549 NSCLC and 8.71 µM in the experiment with RPMI-8226 leukemia. Besides, the TGI in the experiment on RXF 393 renal was 13.2 µM; in the experiment with MOLT-4 leukemia, over 25 µM; with SK-MEL-5 melanoma, 7 µM; with SF-268 CNS, over 25 µM; in the experiment on ACHN renal it was over 25 µM; with HS 578T breast, over 25 µM. Besides, the TGI in the experiment with SN12C renal, with HCC-2998 colon, with A549 NSCLC and with RPMI-8226 leukemia was over 25 µM in each case.
Turning to `[CH3][Sn]([CH3])([CH3])[O]C(=O)C(O)c1ccccc1` (stereo not given), the GI50 in the experiment with RXF 393 renal was 3 µM; with MOLT-4 leukemia it was 4.86 µM; with SK-MEL-5 melanoma it was 1.83 µM; in the experiment with SF-268 CNS, 6.2 µM; with ACHN renal, 4.27 µM; with HS 578T breast, 11.5 µM. For the same compound, the GI50 is 8.7 µM with SN12C renal, 2.32 µM in the experiment on HCC-2998 colon, 4.72 µM in the experiment with A549 NSCLC and 3.38 µM with RPMI-8226 leukemia. Besides, the TGI in the experiment with RXF 393 renal was 7.43 µM; with MOLT-4 leukemia it was over 100 µM; in the experiment on SK-MEL-5 melanoma, 3.35 µM; in the experiment with SF-268 CNS, over 82.7 µM; in the experiment with ACHN renal, over 100 µM; with HS 578T breast, 59.8 µM. The TGI with SN12C renal is 99 µM; in the experiment on HCC-2998 colon, 7.15 µM; with A549 NSCLC, 49.1 µM; with RPMI-8226 leukemia it was over 44.2 µM.
Consider `O=C(O)CC1C(=O)OC2C3COC(=O)c4cc(O)c(O)c(O)c4-c4c(cc(O)c(O)c4O)C(=O)OC2C(OC(=O)c2cc(O)c(O)c4c2C1C(O)C(=O)O4)C(OC(=O)c1cc(O)c(O)c(O)c1)O3` (stereo not given), for which the TGI was over 100 µM in the experiment on RXF 393 renal; 95 µM in the experiment on MOLT-4 leukemia; over 100 µM in the experiment on SK-MEL-5 melanoma; over 100 µM with SF-268 CNS; over 100 µM in the experiment on ACHN renal; over 100 µM in the experiment with HS 578T breast. For the same compound, the TGI in the experiment with SN12C renal was 36.3 µM; in the experiment with HCC-2998 colon it was over 100 µM; in the experiment on A549 NSCLC, over 100 µM; with RPMI-8226 leukemia, over 100 µM.
For the compound `COc1cc(-c2ccc(Nc3ccccc3C(=O)O)c(OC)c2)ccc1Nc1ccccc1C(=O)O`, the TGI in the experiment on RXF 393 renal was 83.3 µM; in the experiment with MOLT-4 leukemia it was over 100 µM; with SK-MEL-5 melanoma it was over 100 µM; in the experiment with SF-268 CNS it was over 100 µM; in the experiment with ACHN renal it was over 94.6 µM; in the experiment with HS 578T breast it was over 100 µM. Also, the TGI in the experiment on SN12C renal was over 73.6 µM; with HCC-2998 colon, over 82 µM; in the experiment with A549 NSCLC it was over 100 µM; with RPMI-8226 leukemia, over 95.8 µM.
